# Source: patent US20260049109A1, “NOVEL IMMUNOMODULATORY, NEUROMODULATORY, OSTEOGENIC, AND ANTI-OSTEOPOROTIC HKUOT-S2 PROTEIN THAT ENHANCES BONE FRACTURE REPAIRS AND SUPPRESSES OSTEOPOROSIS DEVELOPMENT” (The University of Hong Kong, priority 2022, published 2026)
# Legend:
# mTOR1/4E-BP1/AKT1 axis = assay: XL388-induced mTOR inhibition during hMSCs-osteoblast differentiation (qPCR, western blot); assay type: cell-based, human
# Protocol: hMSCs were differentiated into osteoblasts with/without […] XL388 or 0.1 μg ml^−1 HKUOT-S2 treatments for 7 days with medium replenishments every 3 days. The collected cell pellets were processed for qPCR and western blot analyses to establish the mechanism by which HKUOT-S2 promotes osteogenesis and new bone formation. The lists of all the genes and corresponding primer pairs as well as primary and secondary antibodies used for qPCR and western blot analyses are listed in Tables 6, 7 and 8.
# hMSCs = hMSCs to osteoblast differentiation; assay type: cell-based, human
# Protocol: The hMSCs and MC3T3-1E cell lines were seeded at 2.5×10^4 cells/well and 2.5×10^3 cells/well of 6-well plate respectively, containing 2 ml of normal cell culture media. The cell culture media were then replaced with osteogenic media containing 100 nM Dex, 10 mM β-Gly and 0.28 mM Asc with or without the HKUOT-S2 protein. The cells were maintained in the osteogenic media for 14 days with media replacement every 3 days. The nondifferentiated cells maintained in the normal cell culture media were used as controls. The cell pellets were then collected and processed for osteogenic gene expression analysis by qPCR at the experimental endpoints.
# High Quality Total RNAs, with OD260/OD280 Between 1.98-2.00, were extracted from the in vitro experimented cell lines and the tissues harvested from the in vivo experiments using RNAiso plus reagent (Cat #9109) according to the manufacturer's protocol. The quality and quantity of the extracted RNAs were determined using the NanoDrop One (C) UV-VIS micro-volume spectrophotometer (Thermo Scientific). Equal amount of RNAs across the experimental groups were reverse transcribed into complementary DNA (cDNA) using the PrimeScript™ RT reagent Kit (cat #RR037A, Takara) and Peltier Thermal Cycler (Cat #PTC-100, MJ Research) according to the manufacturers' instructions. Specific primer pairs, equal amount of cDNA for the various experimental groups and the PowerUp™ SYBR™ Green Master Mix (Cat #A25742, Thermo Scientific) were used to prepare the qPCR reaction mix. 10 μl of the qPCR reaction mix of the control and HKUOT-S2 treatment groups, loaded into 96-well plate (0.2 ml) were used evaluate the HKUOT-S2-induced gene expressions in the cell lines from the in vitro and the harvested tissues from the in vivo experiments using the QuantStudio 5 real-time PCR system (Thermo Scientific). The HKUOT-S2-induced differentially gene expression fold changes were calculated by 2^−ΔΔCt method after housekeeping gene normalization.
# [1] = system: ovariectomized (OVX) mice; assay: OVX-induced osteoporosis, femur μCT; assay type: in vivo, mouse
# Protocol: A total of 32 female C57BL/6J mice at the age of 8-12 weeks old and weighing between 22-25 g were used in this study. All mice underwent dorsoventral surgical operation under anesthesia. The sham control underwent surgery without ovary removal. The ovaries were completely removed from the anterior uterine horns in the OVX group. There were four groups, namely sham control (n=8), OVX control (n=8), OVX+30 μg kg^−1 estrogen (E2, n=8), and OVX+2.18 mg kg^−1 HKUOT-S2 (n=8) treatment groups. The sham and OVX control mice were given subcutaneous of 200 μl of 1XBP. The OVX+E2 and OVX+HKUOT-S2 groups were given 200 μl E2 and HKUOT-S2 via subcutaneous and IP injections respectively. All treatments started 4 hrs after the surgery and thrice per week for 4 weeks post-surgery. Micro CT (μCT) scans were taken on day zero and biweekly post-surgery. At the experimental endpoint, all the mice in the groups were sacrificed under overdose of anesthesia, the bone tissues harvested and processed for bone histomorphometry and immunohistochemical analyses.
# [2] = 250 nM XL388 alone, western blot
# [3] = 0.1 μg/ml HKUOT-S2, 0.01 μg/ml SEQ ID NO: 83
# [4] = femur of OVX mice, 2.18 mg/Kg HKUOT-S2, 0.5 mg/Kg SEQ ID NO: 83, n=3
compound,measurement,setting,value
Cc1c(C(=O)N2CCOc3ccc(-c4ccc(N)nc4)cc3C2)ccc(S(C)(=O)=O)c1F [XL388],4E-BP1 expression,"mTOR1/4E-BP1/AKT1 axis; 125 nM XL388 alone, qPCR",significantly suppressed
same,AKT1 expression,"mTOR1/4E-BP1/AKT1 axis; 125 nM XL388 alone, qPCR",significantly suppressed
same,MTOR1 expression,"mTOR1/4E-BP1/AKT1 axis; 125 nM XL388 alone, qPCR",significantly suppressed
same,RUNX2 expression,"mTOR1/4E-BP1/AKT1 axis; 125 nM XL388 alone, qPCR",significantly suppressed
same,S6K1 expression,"mTOR1/4E-BP1/AKT1 axis; 125 nM XL388 alone, qPCR",significantly suppressed
same,phosphorylation of 4E-BP1,mTOR1/4E-BP1/AKT1 axis; [2],prevented
same,phosphorylation of MTOR1,mTOR1/4E-BP1/AKT1 axis; [2],prevented
same,ALP expression,mTOR1/4E-BP1/AKT1 axis; XL388-induced mTOR inhibition,no effects
TKSSLPGQTK (HKUOT-S2 peptide) [SEQ ID NO: 83],osteogenic effects compared to the HKUOT-S2 treatment,hMSCs,robust
same,ALP activities,hMSCs; [3],significantly increased
same,ALP mRNA expression,hMSCs; [3],increasing
same,oestrogen receptor α (ERα) mRNA expression,hMSCs; [3],increasing
same,osteoblast biomineralization,hMSCs; [3],significantly increased
same,COL-1A expression,hMSCs; 0.01μ gml^−1,increasing
same,osteoporosis suppression effects compared with the 2.18 mg/Kg HKUOT-S2 treatment group,"[1]; 0.5 mg/Kg SEQ ID NO: 83, OVX mice",stronger
same,bone surface area to bone volume ratio (BS/BV),[1]; [4],decreased
same,bone surface area to tissue volume (BS/TV) ratio,[1]; [4],significantly increasing
same,bone volume (BV/TV),[1]; [4],significantly increasing
same,trabecular number (Tb. N),[1]; [4],significantly increasing
same,trabecular separation (Tb. Sp),[1]; [4],decreased
same,trabecular thickness (Tb.th),[1]; [4],significantly increasing
